# Reference: patent US10435355B2, “Inhibitors of fatty acid amide hydrolase (FAAH) enzyme with improved oral bioavailability and their use as medicaments” (THE REGENTS OF THE UNIVERSITY OF CALIFORNIA, priority 2014, dated 2019)
# Experiment: Pharmacokinetic experiment (PO and IV) in cannulated rats
# Assay type: in vivo, Sprague-Dawley rats
# Details: rat, plasma
# Experimental: Pharmacokinetic Experiment and Analysis
# Compounds were administered orally (PO) and intravenously (IV) to cannulated Sprague-Dawley rats at 10 and 3 mg/kg, respectively. Vehicle was: PEG400/Tween 80/Saline solution at 10/10/80 (% in volume), respectively. Three animals per dose were treated. Blood samples at 0, 15, 30, 60, 120, 240, 480 and 1440 min after administration were collected for PO arm. Blood samples at 0, 5, 15, 30, 60, 120 and 240 min after administration were collected for IV arm. Plasma was separated from blood by centrifugation for 15 min at 3500 rpm a 4° C., collected in a Eppendorf tube and frozen (−80° C.). Control animals treated with vehicle only were also included in the experimental protocol.
# Preparation of Samples, Standard Curve and QC Samples for UPLC-MS Analysis
# Samples were thawed in an ice bath and after a short centrifugation transferred (50 μL) into a 96-deepwell plate and added with 150 μL of acetonitrile spiked with 200 nM Warfarin (the Internal Standard, I.S.). After agitation (3 min) the plate was centrifuged at 3000 g for 10 min at 4° C. […]
# Compounds plasma levels were monitored on a Xevo TQ UPLC-MS/MS system (Waters, Milford USA), using the calibration curve and the internal standard (Warfarin). […] Plasma levels data were analyzed using PKSolutions excel application (Summit Research Service, USA) to derive the most important pharmacokinetic parameters. […]
compound,measurement,value
CNC(=O)c1cccc(-c2cccc(OC(=O)NC3CCCCC3)c2)c1,AUC PO (10 mg/kg),90205 ng·min/mL
